Reference: patent publication US4548750A, “Pyrimido[4,5-d][2]benzazepines useful as sedatives and anxiolytic agents” (Hoffmann-La Roche Inc., priority 1983, dated 1985)

Legend:
mice = assay: Footshock (blocking of footshock-induced fighting in pairs of mice); assay type: in vivo; conditions: Mus musculus; pairs of mice pretreated 1 hour prior to second shocking; 3 out of 3 pairs must be blocked from fighting; maximum dose 100 mg/kg
Description: A pair of mice is confined under a one liter beaker placed on a grid which presents shock to the feet. At least 5 fighting episodes are elicited in a two-minute period. Pairs of mice are marked and pretreated 1 hour prior to a second shocking. Logarithmic dose intervals are utilized up to a maximum of 100 mg/kg. At the 100% blocking dose, 3 out of 3 pairs must be blocked from fighting.

Cats = assay: Unanesthetized Cat (minimum symptoms, usually ataxia); assay type: in vivo; conditions: Felis catus, po, cats treated orally
Description: Cats are treated orally and observed for minimum symptoms--usually ataxia. One cat is used at a dose of 50 mg/kg. If activity is present, up to three cats/dose are used. Results are given as minimum effective dose.

male mice = assay: Inclined Screen (paralyzing effects causing mice to slide off the screen); assay type: in vivo; conditions: Mus musculus; groups of 6 male mice; at least 4 hours observation; maximum dose 500 mg/kg; read-out: Inclined Screen (PD50)
Description: Groups of 6 male mice are given the test drug (maximum dose of 500 mg/kg) and then are left on the inclined screen at least 4 hours for observation of paralyzing effects severe enough to cause them to slide off the screen. If activity is observed, additional doses are taken until at least two are reached at which some, but not all of the animals slide off the screen. Doses at which mice fall off the screen due to toxicity or excitation are not included in the calculation of PD50.

Toxicity (LD50) = conditions: in vivo; PO; species not given

## Cc1nc(Cl)c2c(n1)CN=C(c1ccccc1)c1cc(Cl)ccc1-2 [1,9-Dichloro-3-methyl-7-phenyl-5H-pyrimido[4,5-d][2]benzazepine]
mice
  ED100: 10 mg/kg
Cats
  minimal effective dose: 10 mg/kg
Male mice
  ED50: 400 mg/kg
Toxicity (LD50)
  LD50: > 1000 mg/kg
